Measured values published in patent US20260274829A1, “NEW E3 UBIQUITIN LIGASE LIGAND, PROTEIN DEGRADATION AGENT AND USE THEREOF” (GLUETACS THERAPEUTICS (SHANGHAI) CO., LTD., priority 2023, published 2026).

What follows are molecules tested against T1, human Cereblon WT GST-tagged protein (Homo sapiens, UniProt Q96SW2) (assay: CRBN binding, HTRF CEREBLON BINDING kit). Details: CRBN binding, HTRF CEREBLON BINDING kit.
T1 construct: purchased CISBIO 64BDCRBNPEH
Description: The CEREBLON BINDING kits (specification: 10,000 tests; product number: Catalog #64BDCRBNPEH; CISBIO company) was used to determine the CRBN binding ability of the compounds to be tested through a HTRF method (homogeneous time-resolved fluorescence). The specific methods are as follows: • 1. […] Then, 2.5 μL of human Cereblon WT GST-tagged protein solution was added to each well. Finally, 5 μL of the thoroughly mixed Thalidomide-Re reagent and GST Eu antibody working solution were added to each of the aforementioned wells. […] The blank control wells were sequentially added with 2.5 μL of diluent #9 (1×) solution, 2.5 μL of binding buffer, and 5 μL of thoroughly mixed Thalidomide-Re reagent and GST Eu antibody working solution. • 4. After sealing and incubating the solutions in the aforementioned wells at room temperature for 3 hours, the absorbance values at emission wavelengths of 620 nm and 665 nm were detected by the HTRF method using a Spark microplate reader (V3.1 SP1).
The corresponding CRBN binding inhibition rate was calculated using the following method:
[formula] [formula] [formula] • Note: OD 665 nmcompound is the absorbance value of each well of the compounds to be tested of the present disclosure at an emission wavelength of 665 nm. • OD 620 nmcompound is the absorbance value of each well of the compounds to be tested of the present disclosure at an emission wavelength of 620 nm. • OD 665 nmcontrol is the absorbance value of the blank control well at an emission wavelength of 665 nm. • OD 620 nmcontrol is the absorbance value of the blank control well at an emission wavelength of 620 nm. • OD 665 nmStd0 is the absorbance value of the solvent control well at an emission wavelength of 665 nm. • OD 620 nmStd0 is the absorbance value of the solvent control well at an emission wavelength of 620 nm.

T1 sequence (Q96SW2 whole entry): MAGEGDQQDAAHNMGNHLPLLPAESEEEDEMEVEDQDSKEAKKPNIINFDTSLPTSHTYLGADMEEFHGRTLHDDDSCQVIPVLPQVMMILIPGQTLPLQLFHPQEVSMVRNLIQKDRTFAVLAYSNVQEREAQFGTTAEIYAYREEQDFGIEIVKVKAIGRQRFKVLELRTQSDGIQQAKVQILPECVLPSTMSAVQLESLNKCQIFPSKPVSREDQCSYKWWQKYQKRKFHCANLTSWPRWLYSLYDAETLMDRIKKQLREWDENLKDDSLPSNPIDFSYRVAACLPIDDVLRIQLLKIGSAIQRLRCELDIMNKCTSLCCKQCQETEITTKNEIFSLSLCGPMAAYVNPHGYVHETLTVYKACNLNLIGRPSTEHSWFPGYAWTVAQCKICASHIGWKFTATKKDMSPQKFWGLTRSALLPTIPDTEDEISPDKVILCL

SMILES	IC50
CN1CCN([C@@H]2CCCN(c3cnc(C(N)=O)c(Nc4ccc(C5CCN(Cc6cccc(N7CCC(=O)NC7=O)c6)CC5)cc4)n3)C2)C1=O [GT-04800, (R)-3-((4-(1-(3-(2,4-dioxotetrahydropyrimidin-1(2H)-yl)benzyl)piperidin-4-yl)phenyl)amino)-5-(3-(3-methyl-2-oxoimidazolidin-1-yl)piperidin-1-yl)pyrazine-2-carboxamide]	500 to 1000 nM
CN1CCN([C@@H]2CCCN(c3cnc(C(N)=O)c(Nc4ccc(C5CCN(Cc6ccc(N7CCC(=O)NC7=O)c(F)c6)CC5)cc4)n3)C2)C1=O [GT-04801, (R)-3-((4-(1-(4-(2,4-dioxotetrahydropyrimidin-1(2H)-yl)-3-fluorobenzyl)piperidin-4-yl)phenyl)amino)-5-(3-(3-methyl-2-oxoimidazolidin-1-yl)piperidin-1-yl)pyrazine-2-carboxamide]	< 500 nM
CN1CCN([C@@H]2CCCN(c3cnc(C(N)=O)c(Nc4ccc(C5CCN(Cc6ccc(N7CCC(=O)NC7=O)cc6)CC5)cc4)n3)C2)C1=O [GT-04802, (R)-3-((4-(1-(4-(2,4-dioxotetrahydropyrimidin-1(2H)-yl)benzyl)piperidin-4-yl)phenyl)amino)-5-(3-(3-methyl-2-oxoimidazolidin-1-yl)piperidin-1-yl)pyrazine-2-carboxamide]	500 to 1000 nM
CN1CCN([C@@H]2CCCN(c3cnc(C(N)=O)c(Nc4ccc(C5CCN(Cc6ccc(N7CCC(=O)NC7=O)cc6F)CC5)cc4)n3)C2)C1=O [GT-04803, (R)-3-((4-(1-(4-(2,4-dioxotetrahydropyrimidin-1(2H)-yl)-2-fluorobenzyl)piperidin-4-yl)phenyl)amino)-5-(3-(3-methyl-2-oxoimidazolidin-1-yl)piperidin-1-yl)pyrazine-2-carboxamide]	500 to 1000 nM
CN1CCN([C@@H]2CCCN(c3cnc(C(N)=O)c(Nc4ccc(C5CCN(Cc6cccc(NC7CCC(=O)NC7=O)c6)CC5)cc4)n3)C2)C1=O (stereo partly drawn) [GT-04804, 3-((4-(1-(3-((2,6-dioxopiperidin-3-yl)amino)benzyl)piperidin-4-yl)phenyl)amino)-5-((R)-3-(3-methyl-2-oxoimidazolidin-1-yl)piperidin-1-yl)pyrazine-2-carboxamide]	1000 to 1900 nM
COc1ccc2cn(C3CCN(Cc4ccc(C5CCC(=O)NC5=O)cc4)CC3)nc2c1NC(=O)c1cccc(C(F)(F)F)c1 (stereo not shown) [GT-04813, N-(2-(1-(4-(2,6-dioxopiperidin-3-yl)benzyl)piperidin-4-yl)-6-methoxy-2H-indazol-7-yl)-3-(trifluoromethyl)benzamide]	1000 to 1900 nM
COc1ccc2cn(C3CCN(Cc4ccc(C5CCC(=O)NC5=O)c(F)c4)CC3)nc2c1NC(=O)c1cccc(C(F)(F)F)c1 (stereo not shown) [GT-04814, N-(2-(1-(4-(2,6-dioxopiperidin-3-yl)-3-fluorobenzyl)piperidin-4-yl)-6-methoxy-2H-indazol-7-yl)-3-(trifluoromethyl)benzamide]	500 to 1000 nM
Cc1ccc(-c2c(C)noc2C)cc1N(CC1CCN(Cc2cccc(N3CCC(=O)NC3=O)c2)CC1)c1ccc(C2(C#N)CC2)cc1 [GT-04842, 1-(4-((5-(3,5-dimethylisoxazol-4-yl)-2-methylphenyl)((1-(3-(2,4-dioxotetrahydropyrimidin-1(2H)-yl)benzyl)piperidin-4-yl)methyl)amino)phenyl)cyclopropane-1-carbonitrile]	1000 to 1900 nM
Cc1ccc(-c2c(C)noc2C)cc1N(CC1CCN(Cc2ccc(N3CCC(=O)NC3=O)c(F)c2)CC1)c1ccc(C2(C#N)CC2)cc1 [GT-04843, 1-(4-((5-(3,5-dimethylisoxazol-4-yl)-2-methylphenyl)((1-(4-(2,4-dioxotetrahydropyrimidin-1(2H)-yl)-3-fluorobenzyl)piperidin-4-yl)methyl)amino)phenyl)cyclopropane-1-carbonitrile]	1000 to 1900 nM
Cc1ccc(-c2c(C)noc2C)cc1N(CC1CCN(Cc2ccc(N3CCC(=O)NC3=O)cc2)CC1)c1ccc(C2(C#N)CC2)cc1 [GT-04844, 1-(4-((5-(3,5-dimethylisoxazol-4-yl)-2-methylphenyl)((1-(4-(2,4-dioxotetrahydropyrimidin-1(2H)-yl)benzyl)piperidin-4-yl)methyl)amino)phenyl)cyclopropane-1-carbonitrile]	500 to 1000 nM
O=C1CCN(c2ccc(CN3CCC(n4cc(NC(=O)c5coc(-c6ccnc(NCC7CC7)c6)n5)c(C(F)F)n4)CC3)nc2)C(=O)N1 [GT-04958, 2-(2-((cyclopropylmethyl)amino)pyridin-4-yl)-N-(3-(difluoromethyl)-1-(1-((5-(2,4-dioxotetrahydropyrimidin-1(2H)-yl)pyridin-2-yl)methyl)piperidin-4-yl)-1H-pyrazol-4-yl)oxazole-4-carboxamide]	500 to 1000 nM
Nc1nnc(-c2ccccc2O)cc1N1CCN(Cc2ccc(N3CCC(=O)NC3=O)cc2)CC1 [GT-04961, 1-(4-((4-(3-amino-6-(2-hydroxyphenyl)pyridazin-4-yl)piperazin-1-yl)methyl)phenyl)dihydropyrimidine-2,4(1H,3H)-dione]	500 to 1000 nM
Nc1nnc(-c2ccccc2O)cc1N1CCN(Cc2cccc(N3CCC(=O)NC3=O)c2)CC1 [GT-04962, 1-(3-((4-(3-amino-6-(2-hydroxyphenyl)pyridazin-4-yl)piperazin-1-yl)methyl)phenyl)dihydropyrimidine-2,4(1H,3H)-dione]	1000 to 1900 nM
O=C1CCN(c2cccc(CN3CCC(n4cc(NC(=O)c5coc(-c6ccnc(NCC7CC7)c6)n5)c(C(F)F)n4)CC3)c2)C(=O)N1 [GT-04965, 2-(2-((cyclopropylmethyl)amino)pyridin-4-yl)-N-(3-(difluoromethyl)-1-(1-(3-(2,4-dioxotetrahydropyrimidin-1(2H)-yl)benzyl)piperidin-4-yl)-1H-pyrazol-4-yl)oxazole-4-carboxamide]	500 to 1000 nM
Cc1ccc(-c2c(C)noc2C)cc1N(CC1CCN(Cc2ccc(N3CCC(=O)NC3=O)cc2F)CC1)c1ccc(C2(C#N)CC2)cc1 [GT-04973, 1-(4-((5-(3,5-dimethylisoxazol-4-yl)-2-methylphenyl)((1-(4-(2,4-dioxotetrahydropyrimidin-1(2H)-yl)-2-fluorobenzyl)piperidin-4-yl)methyl)amino)phenyl)cyclopropane-1-carbonitrile]	1000 to 1900 nM
O=C1CCN(c2cccc(CN3CCN(Cc4ccc5c(c4)nc(NC(=O)c4cccc(C(F)(F)F)c4)n5[C@H]4CC[C@@H](CO)CC4)CC3)c2)C(=O)N1 [GT-04977, N-(5-((4-(3-(2,4-dioxotetrahydropyrimidin-1(2H)-yl)benzyl)piperazin-1-yl)methyl)-1-((1s,4s)-4-(hydroxymethyl)cyclohexyl)-1H-benzo[d]imidazol-2-yl)-3-(trifluoromethyl)benzamide]	500 to 1000 nM
O=C1CCC(c2ccc(CN3CCN(Cc4ccc5c(c4)nc(NC(=O)c4cccc(C(F)(F)F)c4)n5[C@H]4CC[C@@H](CO)CC4)CC3)cc2)C(=O)N1 (stereo partly shown) [GT-04978, N-(5-((4-(4-(2,6-dioxopiperidin-3-yl)benzyl)piperazin-1-yl)methyl)-1-((1s,4s)-4-(hydroxymethyl)cyclohexyl)-1H-benzo[d]imidazol-2-yl)-3-(trifluoromethyl)benzamide]	1000 to 1900 nM
O=C1CCC(Nc2cccc(CN3CCN(c4ccc5c(c4)nc(NC(=O)c4cccc(C(F)(F)F)c4)n5[C@H]4CC[C@@H](CO)CC4)CC3)c2)C(=O)N1 (stereo partly shown) [GT-04985, N-(5-(4-(3-((2,6-dioxopiperidin-3-yl)amino)benzyl)piperazin-1-yl)-1-((1s,4s)-4-(hydroxymethyl)cyclohexyl)-1H-benzo[d]imidazol-2-yl)-3-(trifluoromethyl)benzamide]	500 to 1000 nM
Nc1nnc(-c2ccccc2O)cc1N1CCN(Cc2ccc(C3CCC(=O)NC3=O)cc2)CC1 (stereo not shown) [GT-05015, 3-(4-((4-(3-amino-6-(2-hydroxyphenyl)pyridazin-4-yl)piperazin-1-yl)methyl)phenyl)piperidine-2,6-dione]	< 500 nM
Nc1nnc(-c2ccccc2O)cc1N1CCN(Cc2ccc(N3CCC(=O)NC3=O)cn2)CC1 [GT-05016, 1-(6-((4-(3-amino-6-(2-hydroxyphenyl)pyridazin-4-yl)piperazin-1-yl)methyl)pyridin-3-yl)dihydropyrimidine-2,4(1H,3H)-dione]	500 to 1000 nM
O=C1CCC(c2ccc(CN3CCC(N4CCN(c5ccc6c(c5)nc(NC(=O)c5cccc(C(F)(F)F)c5)n6[C@H]5CC[C@@H](CO)CC5)CC4)CC3)cc2)C(=O)N1 (stereo partly shown) [GT-05020, N-(5-(4-(1-(4-(2,6-dioxopiperidin-3-yl)benzyl)piperidin-4-yl)piperazin-1-yl)-1-((1s,4s)-4-(hydroxymethyl)cyclohexyl)-1H-benzo[d]imidazol-2-yl)-3-(trifluoromethyl)benzamide]	1000 to 1900 nM
O=C1CCN(c2ccc(CN3CCC(N4CCN(c5ccc6c(c5)nc(NC(=O)c5cccc(C(F)(F)F)c5)n6[C@H]5CC[C@@H](CO)CC5)CC4)CC3)cc2)C(=O)N1 [GT-05021, N-(5-(4-(1-(4-(2,4-dioxotetrahydropyrimidin-1(2H)-yl)benzyl)piperidin-4-yl)piperazin-1-yl)-1-((1s,4s)-4-(hydroxymethyl)cyclohexyl)-1H-benzo[d]imidazol-2-yl)-3-(trifluoromethyl)benzamide]	1000 to 1900 nM
